Our source for the Km values is patent EP0121352A1, “A leader sequence to promote the secretion of gene products” (priority 1983, dated 1984).

The target of assay [1] is Carboxypeptidase G2 (CPG2) from Pseudomonas strain RS-16 (Pseudomonas sp., UniProt P06621). As to conditions: read-out: Km vallues using methotrexate as substrate.
Experimental: (§1) CPG2 activity was determined after J L McCullough et al, J.Biol.Chem, 1971, 246, 7207. A.lml reaction cuvette containing 0.9 ml of 0.1 M Tris-HCl, pH 7.3 plus 0.2 mM ZnSO4 and 0.1 ml of 0.6 mM methotrexate was equilibrated at 37°C. Enzyme extract was added to the test cuvette and the decrease in absorbance at 320 nm measured using a Pye-Unicam SP1800 double-beam spectrophotometer. Enzyme activity per ml extract was calculated as Δ 320 nm absorbance/min divided by 8.3, which is equivalent to the hydrolysis of 1 µmol of MTX/min at 37°C.
(§2) To determine whether the cloned gene= product in E.coli had the same properties as CPG2 from the pseudomonad, enzyme was purified from E.coli carrying pNM21.
Assay [2] has as its target T1, Carboxypeptidase G2 (CPG2) purified from E.coli clone pNM21 (cloned gene from Pseudomonas species strain RS-16) (Pseudomonas sp., UniProt P06621).
T1 construct: Amino acids 23 to 415 are the CPG2 structural gene; made in house; host or cells: E. coli W5445 carrying plasmid pNM21
The assay is described as follows: Km determination of purified carboxypeptidase G2 synthesised in E.coli (cloned gene product), methotrexate as substrate. The class given is biochemical, Pseudomonas species strain RS-16 (expressed in E.coli). Particulars: CPG2 purified from E.coli carrying pNM21; read-out: Km vallues using methotrexate as substrate.
Experimental: as §1, §2

T1 sequence (P06621 23-415): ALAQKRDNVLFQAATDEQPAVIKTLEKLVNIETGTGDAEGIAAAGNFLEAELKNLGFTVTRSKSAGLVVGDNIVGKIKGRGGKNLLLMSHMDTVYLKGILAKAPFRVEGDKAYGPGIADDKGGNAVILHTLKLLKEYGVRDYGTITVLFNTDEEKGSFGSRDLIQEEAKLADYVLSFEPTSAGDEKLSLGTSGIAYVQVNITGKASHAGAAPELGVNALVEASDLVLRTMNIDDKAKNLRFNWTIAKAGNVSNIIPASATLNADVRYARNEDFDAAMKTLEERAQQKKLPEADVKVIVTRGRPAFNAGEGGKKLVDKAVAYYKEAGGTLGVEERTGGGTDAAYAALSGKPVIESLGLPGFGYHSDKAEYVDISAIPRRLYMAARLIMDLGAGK
Carboxypeptidase G2 (CPG2) from Pseudomonas strain RS-16, sequence (P06621 23-415): as above

Turning to `CN(Cc1cnc2nc(N)nc(N)c2n1)c1ccc(C(=O)N[C@@H](CCC(=O)O)C(=O)O)cc1` [methotrexate], the Km in assay [1] was determined as 8 µM; in assay [2] it was 7.4 µM.
